Measurements as given in patent US8273900B2, “Organic compounds” (Novartis AG, priority 2008, dated 2012).
pIC50: −log10 of the molar value.

Biological target: T1, human recombinant CRF-1 receptor (Homo sapiens, UniProt P34998)
T1 construct: expressed in transfected cells; host or cells: CHO cells (G418-selected)
T1 sequence (P34998 24-415): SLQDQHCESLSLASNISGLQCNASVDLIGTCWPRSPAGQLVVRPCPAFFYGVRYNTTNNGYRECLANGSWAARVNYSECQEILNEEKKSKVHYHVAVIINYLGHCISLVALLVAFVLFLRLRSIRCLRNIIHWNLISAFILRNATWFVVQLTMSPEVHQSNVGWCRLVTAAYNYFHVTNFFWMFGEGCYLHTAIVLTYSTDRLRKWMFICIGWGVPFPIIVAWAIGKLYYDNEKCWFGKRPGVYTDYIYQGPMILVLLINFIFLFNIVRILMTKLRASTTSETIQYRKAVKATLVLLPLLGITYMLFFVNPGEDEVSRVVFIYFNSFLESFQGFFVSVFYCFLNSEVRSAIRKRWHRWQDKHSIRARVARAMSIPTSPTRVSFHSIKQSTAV
Test: CRF-1 receptor antagonism, HTRF cAMP assay in CHO cells in the presence of 1 nM CRF
Type: cell-based
Conditions: CHO cells expressing human recombinant CRF-1; inhibition of the effect of 1 nM CRF on cAMP
Procedure: The CRF-1 or CRF-2α receptor antagonistic activity of the agents of the invention has been determined in vitro in the following assay:
Chinese hamster ovary (CHO) cells expressing either the human recombinant CRF-1 or CRF-2a receptors (Chen et al., Proc Natl Acad Sci USA 90, 8967-8971, 1993; Liaw et al., Endocrinology 137, 72-77, 1996) are propagated in Dulbecco's modified Eagle medium supplemented with 10% foetal calf serum, non-essential amino acids, 100 U/ml penicillin, 100 mg/l streptomycin and 1 g/l geneticin (G418). For cyclic AMP determinations the Homogeneous Time-Resolved Fluoresce (HTRF) cAMP dynamic 2 kit (Cisbio International, France) was used as per manufacturers' instructions. CHO cells, previously cryopreserved, were thawed, centrifuged for 7 mins at 1200 rpm and resuspended in serum free media, then pipetted out onto clear bottomed black tissue culture treated 384-well microtitre plates (Corning Inc, US) at 2,000 cells per well. Compounds of the invention, prepared in DMSO, and subsequently diluted 50 fold in assay buffer (1× Hanks balanced salt solution, 0.2% (w/v) bovine serum albumin, 1.7 mM isobutylmethylxanthine and 10 mM Hepes, pH 7.4) are then added onto the cell containing plate where a further 2 fold dilution is performed and incubated for 15 min. Following incubation, buffer containing a 5 times final concentration of agonist is added to the plate and incubated for 30 min. Finally, d2 dye labelled cAMP and cryptate labeled anti-cAMP antibody, both made in lysis buffer, are added to the plate followed by a settling period of 1 hour. During the settling period cAMP produced by the cells competes with the d2 labelled cAMP for the anti-cAMP cryptate. The plate is read on the Pherastar (BMG, Germany). Increasing levels of endogenous cAMP produced by cells can be followed by a decrease of fluorescent signal and vice versa. Values represented by a change in arbitrary fluorescence units are converted into cAMP concentrations by use of a standard curve the reagents for which are supplied with the kit. Antagonist dose response curves (1 nM-30 μM) are constructed in the presence of 1 nM CRF. IC50 values of antagonists are calculated by fitting the percent inhibition of the effect of CRF by increasing concentrations of the antagonists. The fit is performed using the nonlinear logistic function of the Activitybase software package v 5.4.5.27 (IDBS, UK).

Row | pIC50 | Structure (SMILES)
1 | 6.93 | Cc1ncc(Cl)cc1C(=O)N[C@H]1CC[C@H](CNc2cc(C(F)(F)F)n[nH]2)CC1 [Example 19.107, Trans-5-Chloro-2-methyl-N-{4-[(5-trifluoromethyl-2H-pyrazol-3-ylamino)-methyl]-cyclohexyl}-nicotinamide]
2 | 6.85 | Cc1n[nH]c(NC[C@H]2CC[C@H](NC(=O)c3cc(C(F)(F)F)ccc3Cl)CC2)c1-c1ccccc1 [Example 19.71, Trans-2-chloro-N-(4-((3-methyl-4-phenyl-1H-pyrazol-5-ylamino)methyl)cyclohexyl)-5-(trifluoromethyl) benzamide]
3 | 7.21 | Cc1cc(NC[C@H]2CC[C@H](NC(=O)c3cc(Cl)cnc3C)CC2)ncc1F [Example 19.54, Trans-5-chloro-N-(4-((5-fluoro-4-methylpyridin-2-ylamino)methyl)cyclohexyl)-2-methylnicotinamide]
4 | 7.54 | O=C(N[C@H]1CC[C@H](CNc2nnnn2-c2ccccc2)CC1)c1cc(C(F)(F)F)ccc1Cl [Example 19.100, Trans-2-Chloro-N-{4-[(1-phenyl-1H-tetrazol-5-ylamino)-methyl]-cyclohexyl}-5-trifluoromethyl-benzamide]
5 | 7.27 | Cc1ccc2c(NC[C@H]3CC[C@H](NC(=O)c4cc(C(F)(F)F)ccc4Cl)CC3)n[nH]c2n1 [Example 19.74, Trans-2-chloro-N-(4-((6-methyl-1H-pyrazolo[3,4-b]pyridin-3-ylamino)methyl)cyclohexyl)-5-(trifluoromethyl) benzamide]
6 | 7.82 | O=C(N[C@H]1CC[C@H](CNc2n[nH]cc2-c2ccc(Cl)cc2)CC1)c1cc(C(F)(F)F)ccc1Cl [Example 19.80, Trans-2-chloro-N-(4-((4-(4-chlorophenyl)-1H-pyrazol-3-ylamino)methyl)cyclohexyl)-5-(trifluoromethyl) benzamide]
7 | 6.67 | Cc1cc(C)nc(NC[C@H]2CC[C@H](NC(=O)c3cc(C(F)(F)F)ccc3Cl)CC2)c1 [Example 2.6, Trans-2-Chloro-N-{4-[(4,6-dimethyl-pyridin-2-ylamino)-methyl]-cyclohexyl}-5-trifluoromethyl-benzamide]
8 | 7.21 | CCCc1cc(NC[C@H]2CC[C@H](NC(=O)c3cc(C(F)(F)F)ccc3Cl)CC2)n[nH]1 [Example 4.15, Trans-2-Chloro-N-{4-[(5-propyl-1H-pyrazol-3-ylamino)-methyl]-cyclohexyl}-5-trifluoromethyl-benzamide]
9 | 7.21 | O=C(N[C@H]1CC[C@H](CNc2n[nH]c3ccc(Cl)cc23)CC1)c1cc(C(F)(F)F)ccc1Cl [Example 19.66, Trans-2-chloro-N-(4-((5-chloro-1H-indazol-3-ylamino)methyl)cyclohexyl)-5-(trifluoromethyl) benzamide]
10 | 7.18 | Cc1ccc(NC[C@H]2CC[C@H](NC(=O)c3cc(C(F)(F)F)ccc3Cl)CC2)nc1 [Example 2.8, Trans-2-Chloro-N-{4-[(5-methyl-pyridin-2-ylamino)-methyl]-cyclohexyl}-5-trifluoromethyl-benzamide]
11 | 7.43 | O=C(N[C@H]1CC[C@H](CNc2[nH]ncc2-c2cccnc2)CC1)c1cc(C(F)(F)F)ccc1Cl [Example 19.103, Trans-2-Chloro-N-{4-[(4-pyridin-3-yl-2H-pyrazol-3-ylamino)-methyl]-cyclohexyl}-5-trifluoromethyl-benzamide]
12 | 7.54 | Cn1nc(NC[C@H]2CC[C@H](NC(=O)c3cc(C(F)(F)F)ccc3Cl)CC2)c2ccccc21 [Example 19.70, Trans-2-chloro-N-(4-((1-methyl-1H-indazol-3-ylamino)methyl)cyclohexyl)-5-(trifluoromethyl) benzamide]
13 | 7.33 | O=C(N[C@H]1CC[C@H](CNc2cc(C3CC3)n[nH]2)CC1)c1cc(C(F)(F)F)ccc1Cl [Example 8, Trans-2-Chloro-N-{4-[(5-cyclopropyl-2H-pyrazol-3-ylamino)-methyl]-cyclohexyl}-5-trifluoromethyl-benzamide]
14 | 7.05 | O=C(N[C@H]1CC[C@H](Cn2ccc(N3CCNC3=O)n2)CC1)c1cc(C(F)(F)F)ccc1Cl [Example 6, Trans-2-chloro-N-(4-((3-(2-oxoimidazolidin-1-yl)-1H-pyrazol-1-yl)methyl)cyclohexyl)-5-(trifluoromethyl)benzamide]
15 | 7.42 | Cc1cccnc1NC[C@H]1CC[C@H](NC(=O)c2cc(C(F)(F)F)ccc2Cl)CC1 [Example 1, Trans-2-Chloro-N-{4-[(3-methyl-pyridin-2-ylamino)-methyl]-cyclohexyl}-5-trifluoromethyl-benzamide]
16 | 6.47 | O=C(N[C@H]1CC[C@H](Cn2cc3ccccc3n2)CC1)c1cc(C(F)(F)F)ccc1Cl [Example 21.2, 2-Chloro-N-(4-indazol-2-ylmethyl-cyclohexyl)-5-trifluorometnyl-benzamide]
17 | 5.49 | O=C(N[C@H]1CC[C@@H](CNc2cc(-c3ccc(F)cc3)n[nH]2)CC1)c1cc(C(F)(F)F)ccc1Cl [Example 14, Cis-2-Chloro-N-(4-{[5-(4-fluoro-phenyl)-2H-pyrazol-3-ylamino]-methyl}-cyclohexyl)-5-trifluoromethyl-benzamide]
18 | 7.72 | Cc1ncc(Cl)cc1NC[C@H]1CC[C@H](NC(=O)c2cc(C(F)(F)F)ccc2Cl)CC1 [Example 19.73, Trans-2-chloro-N-(4-((5-chloro-2-methylpyridin-3-ylamino)methyl)cyclohexyl)-5-(trifluoromethyl) benzamide]
19 | 7.27 | Cc1ncc(NC[C@H]2CC[C@H](NC(=O)c3cc(C(F)(F)F)ccc3Cl)CC2)cc1Cl [Example 19.75, Trans-2-chloro-N-(4-((5-chloro-6-methylpyridin-3-ylamino)methyl)cyclohexyl)-5-(trifluoromethyl) benzamide]
20 | 6.82 | COc1ncc(Cl)cc1NC[C@H]1CC[C@H](NC(=O)c2cc(C(F)(F)F)ccc2Cl)CC1 [Example 19.113, Trans-2-Chloro-N-{4-[(5-chloro-2-methoxy-pyridin-3-ylamino)-methyl]-cyclohexyl}-5-trifluoromethyl-benzamide]
21 | 6.46 | Cc1cc(C)n(C[C@H]2CC[C@H](NC(=O)c3cc(Cl)cnc3C)CC2)n1 [Example 22.4, 5-Chloro-N-[4-(3,5-dimethyl-pyrazol-1-ylmethyl)-cyclohexyl]-2-methyl-nicotinamide]
22 | 7.05 | O=C(N[C@H]1CC[C@H](CNc2n[nH]c3ccc(F)cc23)CC1)c1cc(C(F)(F)F)ccc1Cl [Example 19.62, Trans-2-chloro-N-(4-((5-fluoro-1H-indazol-3-ylamino)methyl)cyclohexyl)-5-(trifluoromethyl) benzamide]
23 | 7.01 | CCCc1cc(NC[C@H]2CC[C@H](NC(=O)c3cc(Cl)cnc3C)CC2)n[nH]1 [Example 19.110, Trans-2-Chloro-2 methyl-N-{4-[(5-propyl-1H-pyrazol-3-ylamino)-methyl]-cyclohexyl}-nicotinamide]
24 | 7.66 | Cc1cc(C)n(C[C@H]2CC[C@H](NC(=O)c3cc(C(F)(F)F)ccc3Cl)CC2)n1 [Example 7, Trans-2-chloro-N-[4-(3,5-dimethyl-pyrazol-1-ylmethyl)-cyclohexyl]-5-trifluoromethyl-benzamide]
25 | 7.41 | Cc1cccc(NC[C@H]2CC[C@H](NC(=O)c3cc(C(F)(F)F)ccc3Cl)CC2)n1 [Example 2.9, Trans-2-Chloro-N-{4-[(6-methyl-pyridin-2-ylamino)-methyl]-cyclohexyl}-5-trifluoromethyl-benzamide]
26 | 7.12 | Cc1noc(NC[C@H]2CC[C@H](NC(=O)c3cc(C(F)(F)F)ccc3Cl)CC2)c1C [Example 19.102, Trans-2-Chloro-N-{4-[(3,4-dimethyl-isoxazol-5-ylamino)-methyl]-cyclohexyl}-5-trifluoromethyl-benzamide]

Row | Structure (SMILES) | pIC50
27 | CC(Nc1ccccc1)[C@H]1CC[C@H](NC(=O)c2cc(C(F)(F)F)ccc2Cl)CC1 (stereo partly drawn) [Example 15, Trans-2-Chloro-N-[4-(1RS-phenylamino-ethyl)-cyclohexyl]-5-trifluoromethyl-benzamide] | 6.97
